Consider one compound from patent US10449348B2, “Devices and methods for enhancing the topical application of a benefit agent” (Johnson & Johnson Consumer Inc., priority 2015, dated 2019).

A short description of the data set: In vitro skin permeation study, Franz diffusion cell, passive diffusion or sonophoresis. Format: in vitro ADME, human. The source says:
The experimental setup to run sonophoresis (ultrasound) studies with Franz cell diffusion cells consisted of a custom-built universal generator capable of driving ultrasonic transducers in the 20 kHz-2 MHz range with electronic power up to 60 W (Voltage+/−30V, Current: 2 A, duty cycle 50%) with a square waveform. The real power delivered to the transducer depended on the specific experimental conditions and is specified for each experiment. The driving waveform was delivered to the transducer through a coaxial cable having a BNC connector at one end and a custom non-coaxial connector at the transducer end.
The transducer was piezoelectric and had either a disk shaped form (either 20 or 25 mm in diameter) or a rectangular shape 10×20 mm^2). The thickness of the transducer depended on its fundamental frequency being inversely proportional with it. In order to prevent the liquid or the gel from perturbing the electrical connection, each transducer was encapsulated in a plastic case leaving only one side of the transducer exposed to the topical composition. The case was made out of a rigid plastic and the transducers were sealed with silicone adhesive to enable them to oscilalte more or less freely. The case also enabled the electrical connections to be isolated from the topical composition.
For sonophoresis experiments where the ultrasonic wave energy was delivered perpendicular to the skin, disk-shaped transducers were used in the encapsulation setup described above. For the angled ultrasound application the case encapsulating the ultrasonic transducer was assembled in a hinged configuration, enabling angles between 15 and 90 degrees (perpendicular). Note: an angle of 0 degrees would send the ultrasonic wave parallel with the skin surface.
In vitro skin permeation studies on 5% Ibuprofen gel compositions without ultrasound (passive diffusion), or facilitated by the application of ultrasound (sonophoresis), through human cadaver skin were performed as follows:
A skin penetration study evaluated the penetration of ibuprofen through the human skin for the inventive sample prepared as disclosed in Example 1. A commercial ibuprofen gel product, IBULEVE Ibuprofen Gel (by DDD ltd, Watford, Herts, WD18 7JJ, UK) was used as a benchmark, which contains 5% W/W ibuprofen, also IMS (Industrial Methylated Spirits), carbomer, propylene glycol, diethylamine and purified water according to the product label on its package. A well-known Franz diffusion cell method (taught in US20020006418 A1 which is hereby incorporated by reference) was used. […] A magnetic stirrer bar was added in the […]. The liquid receptor was filled with Phosphate-buffered saline (PBS) solution. Air bubbles in the […] were removed. The system was thermostated at 37° C. above a magnetic stirrer to ensure the homogeneity of the liquid receptor during the experiment. A human cadaver skin sample from a commercial tissue bank (Ohio Valley Tissue and Skin Center, Cincinnati, Ohio, dermatomed to approximately 0.4 mm) was cut to fit the glass diffusion cell and the skin was mounted on the Franz cell.
For the diffusion cells designated to be tested for passive diffusion, a test gel sample of 0.2 ml was applied on the skin surface. For the diffusion cells designated to test for sonophoresis, additional test sample (2-5 ml) was added in order to assure the entire, or at least a large portion, of the ultrasonic transducer tip was immersed by the test gel during the ultrasound treatment. The excess gel was promptly removed from the donor cell after the ultrasound treatment so that the remaining test gel was approximately 0.2 ml.
Ultrasound treatments were carried out with the following test conditions: • a) Conventional ultrasound treatment with 90 degree angle (°) between the ultrasound direction and the skin surface; • b) Angled Ultrasound treatment with less than 90 degree angle between the ultrasound direction and the skin surface. […]

Consider `CC(C)Cc1ccc(C(C)C(=O)O)cc1` (stereo not shown) [ibuprofen], for which the permeation enhancement factor result reads like this: (15 degree UT sonophoresis vs without ultrasound, 6th hour) “approximately 3.0 fold”; (15 degree UT sonophoresis vs without ultrasound, 24th hour) “approximately 3.0 fold”; (60 degree UT sonophoresis vs without ultrasound, 6th hour) “approximately 2.9 fold”; (60 degree UT sonophoresis vs without ultrasound, 24th hour) about 2.0 fold; (90 degree UT sonophoresis vs without ultrasound, 6th hour) “approximately 2.3 fold”; (90 degree UT sonophoresis vs without ultrasound, 24th hour) about 2.0 fold. The “ibuprofen permeation through the human skin versus no ultrasound” value is, setting by setting: (15 degree ultrasound treatment) “significantly enhanced”; (45 degree angled sonophoresis) “significantly enhanced”; (60 degree angled sonophoresis) “significantly enhanced”; (90 degree ultrasound treatment) “significantly enhanced”.
